“Also recorded” adds a separate entry of the source. No end group written: not given here.
What was measured:
mice [1] = assay: Porsolt Forced Swim Test (FST) in mice; type: in vivo, mouse
Procedure: Mice (Janvier, France) were placed individually in cylinders (height: 30 cm, diameter: 15 cm) filled with 12 cm deep water (temperature: 22±1° C.) for 6 min. The total period of immobility was recorded during the last 4 min.

mice [2] = assay: Tail Suspension Test (TST); type: in vivo, mouse; conditions: subchronic, 4 days; spadin i.v. 10^-6 M, fluoxetine 3 mg/kg
Procedure: Mice were suspended by the tail. […] The immobility time was recorded during a 6 min test session.

mice [3] = assay: Novelty-Suppressed Feeding test (NSF); type: in vivo, mouse; conditions: 4 days; spadin i.v. 10^-6 M, fluoxetine i.p. 3 mg/kg
Procedure: NSF paradigm is a conflict test that elicits competing motivations: the drive to eat and the fear of venturing into the center of a bright arena. Latency to begin eating is used as an index of anxiety- and depression-like behavior. After 4 day treatment (saline or spadin, i.v.) and 24 hours food-deprivation, mice were presented with a food pellet placed in the center of a brightly plastic box (50×50×20 cm). Latency to begin eating was measured as previously described.

mice [4] = assay: Corticosterone assay after tube restraint stress; type: in vivo, mouse; conditions: 30 min after 10 min tube restraint; spadin i.p. 10^-5 M
Procedure: Mice were individually housed for at least 12 hours before blood sample collection. Serum samples, collected in the morning were obtained by retroorbital puncture before and 30 min after the end of a 10-min tube restraint. Levels of corticosterone were measured by radioimmunoassay using a commercially available kit (MP Biomedicals).

[5] = test system: dentate gyrus of the mouse hippocampus; assay: Hippocampal neurogenesis (BrdU / DCX labeling); type: in vivo
Procedure: Twenty-four hours after the injection of BrdU (120 mg per kg of body weight in a 300 μl bolus), mice were euthanized and transcardially perfused with 4% cold paraformaldehyde. Serial sections of the brains were cut (40 μm) throughout the entire hippocampus on a vibratome (Leica). Every sixth section throughout the hippocampus was processed for BrdU or doublecortin (DCX) immunohistochemistry, as previously described. For each immunodetection, slides were first incubated overnight at 4° C. with a mouse monoclonal anti-BrdU antibody (1:200; Becton-Dickinson) or a goat anti-DCX (1:400, Santa Cruz Laboratories). For chromogenic immunodetection, sections were then incubated for 1 hour in biotin-conjugated species-specific secondary antibodies (1:100; Vector Laboratories) followed by a peroxidase-avidin complex solution according to the manufacturer's protocol. The peroxidase activity of immune complexes was visualized with DAB staining using the VectaStain ABC kit (Vector Laboratories). For fluorescent double-labeling, performed to determine the cell phenotype, sections were incubated overnight at 4° C. with anti-sheep BrdU (1:200, Interchim), anti-goat DCX (1:200, Santa Cruz Laboratories), or an anti-GFAP (Glial Fibrillary acidic protein, marker for astrocytes, 1:250, Dako). […] All BrdU-labeled cells in the granular cell layer and subgranular zone (SGZ) were counted in each section (n=10 and 5 mice per group) at 400× and 1000× magnification under a light microscope (Olympus) by an experimenter blinded to the study code. The total number of BrdU-positive cells per section was multiplied by 6 to obtain the total number of cells per dentate gyrus. The counting of BrdU/DCX labeled cells was performed using a Laser Scanning Confocal Microscope (TCS SP, Leica) equipped with a DMIRBE inverted microscope.

TREK-1 [6] = target: T1, TREK-1 (Mus musculus, UniProt P97438); assay: Whole-cell patch-clamp on cultured pyramidal neurons from hippocampus; type: cell-based; set-up: endogenous in cells; host or cells: primary hippocampal pyramidal neurons from newborn mice; conditions: 20 μM fluoxetine
T1 sequence (P97438 1-426): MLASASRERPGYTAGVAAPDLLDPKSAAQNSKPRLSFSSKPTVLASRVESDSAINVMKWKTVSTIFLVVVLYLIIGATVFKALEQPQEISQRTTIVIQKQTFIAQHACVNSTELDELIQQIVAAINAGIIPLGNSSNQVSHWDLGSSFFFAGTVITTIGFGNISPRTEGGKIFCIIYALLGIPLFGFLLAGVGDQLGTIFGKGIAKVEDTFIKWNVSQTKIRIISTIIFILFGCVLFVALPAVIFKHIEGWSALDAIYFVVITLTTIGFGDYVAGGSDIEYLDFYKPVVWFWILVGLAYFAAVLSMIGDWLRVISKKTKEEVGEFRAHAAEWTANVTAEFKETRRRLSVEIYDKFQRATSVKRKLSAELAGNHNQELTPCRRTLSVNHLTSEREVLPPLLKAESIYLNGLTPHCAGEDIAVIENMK
Procedure: A, Cultured pyramidal neuron from hippocampus, with on top, the patch-clamp pipette. Neurons were chosen according to their morphology. B, Current recorded in response to ramps of potential obtained in the various conditions indicated (aa: arachidonic acid: 10 μM, Spadin: 1[…]μM, Fluoxetine: 20 μM). Neurons were recorded in the whole-cell configuration of the patch-clamp technique. In voltage-clamp, ramps of potential from −90 mV to 70 mV were applied every 10 sec. The % variation of the current amplitude was always measured at −50 mV. The currents were recorded in response to such ramps in control conditions and in the presence of a cocktail of potassium blockers suitable to isolate the TREK currents (10 mM tetraethyl ammonium (TEA), 3 mM 4-aminopyridine (4-AP), 50 nM charybdotoxin, 10 μM glibenclamide, 100 nM apamin). […] The blocks were reversible. C, Time course of spadin and fluoxetine effects. Applications are indicated by the horizontal bars.
Cortical neurons were prepared from 14 old mouse embryos whereas hippocampal neurons were prepared from new born mice. Briefly, dissected brain areas were dissociated and neurons were plated on polylysine-treated 35 or 60 mm dishes and maintained in culture in Neurobasal medium supplemented with B27, Glutamax and antibiotics for 2 to 3 weeks before to be used for electrophsysiological or biochemical experiments.

TREK-1 [7] = target: T1, TREK-1; assay: Whole-cell patch-clamp on CA3 pyramidal neurons in hippocampus brain slices; type: cell-based; set-up: a cellular network that endogenously expresses both TREK-1 and NTSR3/Sortilin; from tissue; host or cells: mouse hippocampal brain slices, CA3 pyramidal neurons; conditions: wild-type CA3 neurons, no aa
TREK-1 [8] = target: T1, TREK-1; assay: Competition with 125I-spadin for binding to TREK-1 transfected COS-7 cell homogenates; set-up: expressed in transfected cells; host or cells: COS-7 (DEAE-dextran transfection); conditions: TREK-1 transfected COS-7 homogenates, read-out: affinity for TREK-1
Procedure: Experiments were performed using COS-7 cells (10^6 cells per diameter 100 dish) transfected with TREK-1 (2 μg/dish) in the presence or in the absence of NTSR3/sortilin (2 μg/dish) using the DEAE-dextran protocol.
Incubations were terminated by addition of 2 ml of ice-cold binding buffer followed by filtration through cellulose acetate filters (Sartorius, Göttingen, Germany) and washing twice with 2 ml of ice-cold buffer. Radioactivity on filters was counted with a gamma-counter.

TREK-1 [9] = target: T1, TREK-1; assay: Whole-cell patch-clamp on TREK-1 transfected COS-7 cells; type: cell-based; set-up: GFP; expressed in transfected cells; host or cells: COS-7 (DEAE-dextran transfection); conditions: after 90 sec of application
Procedure: All electrophysiological experiments were done on COS-7 cells seeded at a density of 20,000 cells/35-mm dish 24 h before transfection. Cells were transfected by the classical DEAE-dextran method with TREK-1-GFP plasmids (0.1 μg/μL). Cells were visualized 48-72 h after transfection using fluorescence.
The whole-cell patch-clamp technique was used to evaluate TREK-1 potassium channel current by using a RK 400 patch-clamp amplifier (Axon Instruments, U.S.A.), as previously described. Currents were lowpass filtered at 3 kHz, digitized at 10 kHz using a 12-bit analog-to-digital converter. […] The bath solution contained (in mM): 150 NaCl, 5 KCl, 3 MgCl2, 1 CaCl2, and 10 HEPES, adjusted to pH 7.4 with NaOH; the patch pipette solution contained (in mM): 155 KCl, 3 MgCl2, 5 EGTA, and 10 HEPES, adjusted to pH 7.2 with KOH. Cells were clamped at −80 mV and voltage changes were either applied by ramp (from −100 to 50 mV, 1 s in duration) or by step (from −100 to 40 mV, 1.5 s in duration). Cells were continuously superfused with a microperfusion system. The pipette capacitance was not subtracted from total membrane capacitance and there was no leak substraction. All experiments were done at room temperature (21° C. to 22° C.) and in the presence of a cocktail of potassium channel inhibitors (K^+ blockers: 10 mM tetraethyl ammonium (TEA), 3 mM 4-aminopyridine (4-AP), 50 nM charybdotoxin, 10 μM glibenclamide, 100 nM apamin).
Pclamp software was used to analyze currents recorded in the whole-cell mode measured at 0 mV. Results are expressed as means±SD. To obtain the IC50 value for dose-dependent inhibition, experimental data were fitted with a standard sigmoidal function.

[10] = target: NTSR3/Sortilin (endogenous, C13NJ microglial cell line); assay: cell-based or functional assay
[11] = target: TREK-1 channel (expressed by transfection in COS-7 cells); assay: cell-based or functional assay
[12] = target: NTSR3/Sortilin (endogenous, C13NJ microglial cell line); assay: competition with 0.2 nM 125I-NT on C13NJ cell homogenates, filtration
[13] = target: TREK-1 channel (expressed by transfection in COS-7 cells); assay: competition with 0.2 nM 125I-spadin on TREK-1 transfected COS-7 cell homogenates, filtration

Chain of TREK-1 channel (expressed by transfection in COS-7 cells) (O95069 whole entry): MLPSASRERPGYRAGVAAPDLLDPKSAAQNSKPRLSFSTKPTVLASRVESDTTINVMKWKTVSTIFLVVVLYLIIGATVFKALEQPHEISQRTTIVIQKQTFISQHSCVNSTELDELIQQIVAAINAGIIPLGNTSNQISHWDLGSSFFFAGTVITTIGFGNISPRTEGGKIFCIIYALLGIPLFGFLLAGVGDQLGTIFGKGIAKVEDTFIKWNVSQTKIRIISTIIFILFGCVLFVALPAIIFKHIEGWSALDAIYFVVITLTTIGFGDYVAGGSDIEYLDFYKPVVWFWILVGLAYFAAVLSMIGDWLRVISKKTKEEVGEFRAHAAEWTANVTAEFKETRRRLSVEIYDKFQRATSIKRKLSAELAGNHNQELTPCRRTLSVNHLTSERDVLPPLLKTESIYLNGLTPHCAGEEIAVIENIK
Chain of NTSR3/Sortilin (endogenous, C13NJ microglial cell line) (Q99523 78-831): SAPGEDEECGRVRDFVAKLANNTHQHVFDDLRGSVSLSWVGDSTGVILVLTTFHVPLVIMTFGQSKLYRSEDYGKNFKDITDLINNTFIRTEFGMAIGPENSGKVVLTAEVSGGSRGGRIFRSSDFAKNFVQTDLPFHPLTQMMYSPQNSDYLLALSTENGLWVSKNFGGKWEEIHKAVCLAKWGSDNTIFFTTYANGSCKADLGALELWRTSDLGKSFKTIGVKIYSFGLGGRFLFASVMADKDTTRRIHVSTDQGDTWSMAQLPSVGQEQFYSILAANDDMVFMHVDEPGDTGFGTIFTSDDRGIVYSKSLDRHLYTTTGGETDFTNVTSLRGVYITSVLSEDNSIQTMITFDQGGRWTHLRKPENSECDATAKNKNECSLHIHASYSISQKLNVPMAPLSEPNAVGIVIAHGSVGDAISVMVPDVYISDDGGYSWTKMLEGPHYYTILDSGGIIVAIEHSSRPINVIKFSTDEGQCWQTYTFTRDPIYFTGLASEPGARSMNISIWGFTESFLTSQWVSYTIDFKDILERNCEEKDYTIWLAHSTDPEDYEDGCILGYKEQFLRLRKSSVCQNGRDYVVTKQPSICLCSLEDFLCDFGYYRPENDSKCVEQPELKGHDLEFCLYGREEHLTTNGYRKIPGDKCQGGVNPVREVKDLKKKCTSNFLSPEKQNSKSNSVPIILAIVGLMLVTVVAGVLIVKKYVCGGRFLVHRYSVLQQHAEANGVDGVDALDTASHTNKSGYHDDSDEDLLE

**Q.** What does the source list for `CNCCC(Oc1ccc(C(F)(F)F)cc1)c1ccccc1` (stereo not shown) [fluoxetine, Fluoxetine, reference compound]?
**A.** reduction of time of immobility (mice [1]; chronic, 15 days, spadin 10^-6 M, fluoxetine 1 mg/kg): around 30%; reduction of time spent immobile (mice [1]; subchronic, 4 days, spadin i.v. 10^-6 M, fluoxetine 3 mg/kg): had no effect; also recorded: without effect; reduction of time spent immobile (mice [2]): had no effect; also recorded: without effect; latency to feed versus saline (mice [3]): had no effect; reduction of stress-induced increase in corticosterone levels versus saline (mice [4]): 59.1%; number of BrdU-positive cells in the SGZ versus saline ([5]; 4-day treatment, spadin i.p. 10^-5 M): had no effect; number of BrdU-positive cells versus saline ([5]; 15 days): significant increase; block of arachidonic acid evoked current (putative TREK current) (TREK-1 [6]): fully blocked; inhibition of the current recorded in presence of potassium blockers, substance alone (TREK-1 [7]): 13.0 ± 3.8%

**Q.** What does the source list for “QDRLDAPPPPAAPLPR [N-terminal fragment Gln1-Arg16, reference compound]”?
**A.** Kd (TREK-1 [8]): 1000 nM; inhibition of current increase induced by 10 μM aa (TREK-1 [9]): unable to inhibit

**Q.** APLPRWSGPIGVSWGLR [spadin] was tested. Which C13NJ cell migration induced by 10 nM NT in the presence of 1 µM spadin (% of migration with 10% FCS) [10] did it give?
**A.** 6.2%

**Q.** And the IC50 of dose-dependent inhibition of TREK-1 current at 0 mV [11]?
**A.** 70.7 nM

**Q.** What about the block of arachidonic acid-stimulated TREK-1 current (whole-cell patch clamp, transfected COS-7 cells, 100 nM spadin) [11] of the same molecule?
**A.** 63%

**Q.** And the affinity [12]?
**A.** 8 nM

**Q.** What about the affinity [13] of the same molecule?
**A.** 10 nM
